According to the supplement of paper PMC10949913:

Tests used:
Conditions in all cases: 48 h
NCI-H295R [1] = test: AC50 viability; higher = less potent
Method in brief: (§1)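 AC50 and area under the curve values derive from fitted concentration-response curves, restricted to inhibitory or non-responding curve classes. The curves came from three adrenocortical carcinoma cell lines in 1,536-well plates, each receiving 23 nL of every library compound at 11 concentrations. Viability was read by CellTiter-Glo luminescence after 48 h, normalised per plate to vehicle and empty-well controls.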

CU-ACC2 = test: area under concentration-response curve (viability) (AUC (a.u.)); higher = less active
Method in brief: as §1

NCI-H295R [2] = test: as above
Method in brief: as §1

CU-ACC1 = test: as above
Method in brief: as §1

SMILES | AC50 viability (NCI-H295R [1]) [µM] | area under concentration-response curve (CU-ACC2) | area under concentration-response curve (NCI-H295R [2]) | area under concentration-response curve (CU-ACC1)
CCN1CCN(Cc2ccc(NC(=O)c3ccc(C)c(NC(=O)c4cncc(-c5cccs5)c4)c3)cc2C(F)(F)F)CC1 | 7.42 | 521 | 432 | 501
COc1ccc([S+](=O)([O-])Nc2cc(-c3csc(C#N)c3)ccc2C)cc1 | 0.0934 | 529 | 393 | 489
c1ccc(CNc2nc(N3CCOc4ccccc43)nc3c2CCCC3)cc1 | 20.9 | 528 | 481 | 449
C/C=C(\C)C(=O)N[C@@H](c1ccccc1)[C@@H](O)C(=O)O[C@H]1C[C@@]2(O)[C@@H](OC(=O)c3ccccc3)[C@@H]3[C@]4(OC(C)=O)CO[C@@H]4C[C@H](O)[C@@]3(C)C(=O)[C@H](OC(C)=O)C(=C1C)C2(C)C | 0.833 | 515 | 418 | 447
CC/C(=C(/CC)c1ccc(O)cc1)c1ccc(O)cc1 | 18.6 | 585 | 517 | 516
C/C=C(/C)C(=O)O[C@H]1C(C)=C2[C@H]([C@@H]1OC(=O)CCCCCCC)[C@@](C)(OC(C)=O)C[C@H](OC(=O)CCC)[C@@]1(O)[C@H]2OC(=O)[C@@]1(C)O | 10.5 | 344 | 498 | 465
COc1cc([C@@H]2c3cc4c(cc3[C@H](O)[C@H]3COC(=O)[C@@H]23)OCO4)cc(OC)c1OC | 0.934 | 467 | 453 | 504
NC/1=N/C2=C([NH]C=N2)C(=S)N1 | 10.5 | 609 | 533 | 511
COc1cccc(-c2cc(F)ccc2C2Cc3nc(N)nc(C)c3C(=O)N2)n1 (stereo unspecified) | 0.59 | 413 | 403 | 379
NC(=O)[C@H]1CCS[C@@H]2C[C@]3(CCCN3C(=O)Cc3ccc(NC(=O)COc4ccc(Cl)cc4Cl)cc3)C(=O)N12 | 14.8 | 528 | 483 | 
COc1ccccc1C(=O)Nc1cc2c(cc1N1CCCCC1)n(C)c(=O)n2C | 16.6 | 434 | 422 | 426
O=C1\C=C(OC2=C1SC=C2C3=CC=C4OCCOC4=C3)\N5CCOCC5 | 0.0742 | 276 | 350 | 293
CCNCC[S+]([O-])(=O)NC[C@]1(S\C(=N/N1C(=O)C(C)(C)C)NC(=O)C(C)(C)C)C2=CC=CC=C2 | 0.209 | 544 | 415 | 452
COc1ccc(-c2oc3ncnc(N)c3c2-c2ccc(NC(=O)Nc3cc(C(F)(F)F)ccc3F)cc2)cc1 | 13.2 | 518 | 471 | 469
N#Cc1c(NC(=O)c2cccc3ccccc23)sc2c1CCCC2 | 0.372 | 551 | 458 | 480
CN1CCN(CC1)C2=CC3=C([NH]C(=N3)C/4=C(\N)C5=C(F)C=CC=C5NC4=O)C=C2 | 20.9 | 574 | 479 | 485
O=C\1NC(=O)\C(=C1C2=C[NH]C3=C2C=CC=C3)C4=C[NH]C5=C4C=CC=C5 | 16.6 | 562 | 510 | 504
CCN(CC)CCNC(=O)c1c(C)[nH]c(/C=C2\C(=O)Nc3ccc(F)cc32)c1C | 9.34 | 529 | 456 | 528
Cc1cc(C(=O)N2CCN(c3cccc(Cl)c3)CC2)n(-c2ccccc2)n1 | 2.95 | 648 | 515 | 
CON(C)C(=O)N1/N=C(S[C@@]1(CCCN)C2=CC=CC=C2)/C3=CC(=CC=C3F)F | 2.09 | 517 | 348 | 
CC[C@H](C)[C@@H]([C@@H](CC(=O)N1CCC[C@H]1[C@H](OC)[C@@H](C)C(=O)N[C@@H](Cc1ccccc1)c1nccs1)OC)N(C)C(=O)[C@@H](NC(=O)[C@H](C(C)C)N(C)C)C(C)C | 33.2 | 363 | 344 | 
CCNC(=O)Nc1ccc(-c2nc3c(c(N4CCOC[C@@H]4C)n2)CCN(C2COC2)C3)cc1 | 4.68 | 561 | 520 | 
CC(C)(O)CNc1nc(Nc2ccnc(C(F)(F)F)c2)nc(-c2cccc(C(F)(F)F)n2)n1 | 16.6 |  | 417 | 402
